Reference: paper PMC5318888, “SAMHD1 enhances nucleoside-analogue efficacy against HIV-1 in myeloid cells” (Scientific Reports, 2017)
Several values for one entry are separate records, joined by “and”; a condition that tells them apart may be missing. Equal values may be shown once.

Assays:
Assay type in all cases: cell-based
[1] = Cytotoxicity, live cells by flow cytometry, THP-1 cells (PMA−/PMA+); conditions: human
Method: (§1) H9, Jurkat and undifferentiated U937 and THP-1 (PMA^−) cells (6 × 10^5 cells/mL) were treated with increasing concentrations of nucleoside analogues (0–200 μM; except CFB, 0–1.6 μM) and incubated at 37 °C in 5% CO2 for 48 h. Medium was then replaced and cells were further incubated for 72 h. Non-dividing U937 and THP-1 (PMA^+) cells (6 × 10^5 cells/mL) were differentiated by addition of 100 nM phorbol-12-myristate-13-acetate (PMA^+) for 48 h and then treated with increasing concentrations of nucleoside analogues as described above. The percentage of live cells was determined by flow cytometry using Live/Dead fixable blue-fluorescent dyes (Invitrogen) and a Fortessa X20 analyser (BD Biosciences). Data were analysed using the FlowJo software suite.
(§2) The cytotoxic concentration of nucleoside analogue that inhibits cell viability by 50% (CC50) and the effective concentration of nucleoside analogue that inhibits infection of cells by 50% (EC50) were calculated for each independent experiment by non-linear regression using GraphPad Prism v6.00 for Windows (GraphPad Software, San Diego, CA). Non-ambiguous values were subjected to a replicate test to calculate confidence intervals of 95% (95% CI). CC50 and EC50 values were determined for at least two independent experiments for each nucleoside analogue and a selectivity index (SI) also calculated, (SI = CC50/EC50). EC50 values for each replicate were used to perform an unpaired two-tailed t-test to determine significant differences between U937 cells expressing SAMHD1 wt or HD206-7AA mutant and THP-1 cells expressing Vpx or untransduced cells. P values of <0.005 were considered statistically significant.

THP-1 cells = test: as above; conditions: human, 48 h
Method: as §1, §2

HIV-1-GFP [2] = test: Anti-HIV-1 activity in THP-1 cells with or without Vpx transduction
Method: Antiviral assays were further performed in monocytoid cells transduced with YFP-expressing VLPs containing WT SAMHD1, HD206-7AA or Vpx. Briefly, U937 cells (6 × 10^5 cells/mL) were transduced with WT SAMHD1-YFP or HD206-7AA-YFP VLPs by spinoculation at 800 × g for 90 min in the presence of 1 μg/mL polybrene. Similarly, THP-1 cells (6 × 10^5 cells/mL) were transduced with Vpx-YFP VLPs by spinoculation at 800 × g for 90 min in the presence of 1 μg/mL polybrene. Cells were incubated at 37 °C in 5% CO2 and after 72 h, PMA^+ cells (6 × 10^5 cells/mL) were treated with 100 nM PMA and PMA^− cells (7.5 × 10^4 cells/mL) were left untreated. Cells were then incubated at 37 °C in 5% CO2 for 48 h. Nucleoside analogues were added at increasing concentrations (0–200 μM; except CFB, 0–1.6 μM) and cells were further incubated for 48 h. PMA^− cells were then infected with HIV-1-GFP by spinoculation at 800 × g for 90 min in the presence of 1 μg/mL polybrene, PMA^+ cells were infected with HIV-1-GFP in the presence of 1 μg/mL polybrene only. Cells were incubated for 72 h at 37 °C in 5% CO2 and then analysed by two-colour flow cytometry using a Fortessa X20 analyser (BD Biosciences). Data were analysed using the FlowJo software suite.
as §2

[3] = Cytotoxicity, live cells by flow cytometry, Jurkat cells; conditions: human
Method: as §1, §2

HIV-1-GFP [4] = test: microbe, parasite or virus in culture
Method: Cells were then infected with HIV-1-GFP by spinoculation at 800 × g for 90 min in the presence of 1 μg/mL polybrene, and further incubated at 37 °C in 5% CO2 for 72 h. […] Cells were then infected with HIV-1-GFP by spinoculation at 800 × g for 90 min in the presence of 1 μg/mL polybrene, and further incubated at 37 °C in 5% CO2 for 72 h. Non-dividing U937 and THP-1 (PMA^+) cells (6 × 10^5 cells/mL) were differentiated by addition of 100 nM PMA (PMA^+) for 48 h and treated with increasing concentrations of nucleoside analogues as described above. Cells were then infected with HIV-1-GFP in the presence of 1 μg/mL polybrene and further incubated at 37 °C in 5% CO2 for 72 h. The percentage of GFP^+cells was determined by one-colour flow cytometry using a Fortessa X20 analyser (BD Biosciences) and the data analysed using the FlowJo software suite.
Non-ambiguous values were subjected to a replicate test to calculate confidence intervals of 95% (95% CI). CC50 and EC50 values were determined for at least two independent experiments for each nucleoside analogue and a selectivity index (SI) also calculated, (SI = CC50/EC50). EC50 values for each replicate were used to perform an unpaired two-tailed t-test to determine significant differences between U937 cells expressing SAMHD1 wt or HD206-7AA mutant and THP-1 cells expressing Vpx or untransduced cells. P values of <0.005 were considered statistically significant.

[5] = Human immunodeficiency virus 1, THP-1, read-out: EC50 [95% CI], THP1 PMA+, Vpx+
[6] = Human immunodeficiency virus 1, THP-1, read-out: EC50 [95% CI], THP1 PMA+, Vpx−
[7] = Human immunodeficiency virus 1, THP-1, read-out: EC50 [95% CI], THP1 PMA−, Vpx+
[8] = Human immunodeficiency virus 1, THP-1, read-out: EC50 [95% CI], THP1 PMA−, Vpx−
[9] = Human immunodeficiency virus 1, H9, read-out: EC50 anti-HIV-1, H9 cells
[10] = Human immunodeficiency virus 1, Jurkat, read-out: EC50 anti-HIV-1, Jurkat cells

Structure (SMILES)	CC50 at 48 h [1] [µM]	CC50 (THP-1 cells) [µM]	EC50 (HIV-1-GFP [2]; [5]) [µM]	EC50 (HIV-1-GFP [2]; [6]) [µM]	EC50 (HIV-1-GFP [2]; [7]) [µM]	EC50 (HIV-1-GFP [2]; [8]) [µM]	Fold (EC50 Vpx+ vs Vpx−) (HIV-1-GFP [2]; THP1 PMA+) [fold]	CC50 at 48 h [3] [µM]	EC50 (HIV-1-GFP [4]; [9]) [µM]	EC50 (HIV-1-GFP [4]; [10]) [µM]	Fold (EC50 Vpx+ vs Vpx−) (HIV-1-GFP [2]; THP1 PMA−) [fold]	CC50 at 48 h ([3]; Jurkat cells, read-out: CC50) [µM]	EC50 anti-HIV-1 (HIV-1-GFP [4]; H9 cells)	SI, selectivity index CC50/EC50 (HIV-1-GFP [4]; H9 cells)	EC50 anti-HIV-1 (HIV-1-GFP [4]; Jurkat cells)	further results
Nc1nc2c(ncn2COCCO)c(=O)[nH]1 [ACV, Acycloguanosine]	> 200	> 200	29.6	1.08	> 200	> 200	27	> 200	> 200	> 200						
Nc1nc(O)c2ncn(COC(CO)CO)c2n1 [GCV, 2′-Nor-2′-deoxyguanosine]	> 200	> 200	> 200	0.632	> 200	> 200	>316	> 200	> 200	> 200						
Cc1ccnc2c1NC(=O)c1cccnc1N2C1CC1 [NVP, Nevirapine]			0.235	0.223	0.292	0.244	1		0.158	0.486	1	> 200	nanomolar concentrations	> 1266	nanomolar concentrations	CC50 at 48 h ([1]; PMA-differentiated, non-dividing THP-1 cells (PMA+), THP-1 PMA+, read-out: CC50): > 200 µM; CC50 at 48 h ([1]; undifferentiated THP-1 cells (PMA−), THP-1 PMA−, read-out: CC50): > 200 µM
Cc1nnc(C(=O)NC(C)(C)c2nc(C(=O)NCc3ccc(F)cc3)c(O)c(=O)n2C)o1 [RAL, Raltegravir]			0.037	0.038	0.043	0.035	1		0.002	0.004	1	> 200	nanomolar concentrations	> 100000	nanomolar concentrations	CC50 at 48 h ([1]; THP-1 PMA+, read-out: CC50): > 200 µM; CC50 at 48 h ([1]; THP-1 PMA−, read-out: CC50): > 200 µM
Cc1cn([C@H]2C=C[C@@H](CO)O2)c(=O)[nH]c1=O [d4T, 2′,3′-didehydro-2′,3′-dideoxythymidine]	> 200	> 200	52.2	1.49	13.3	4.39	35	> 200	< 10	< 10				> 36 and > 30		SI, selectivity index CC50/EC50 (HIV-1-GFP [4]; Jurkat cells): > 30; EC50 (HIV-1-GFP [4]; read-out: EC50 anti-HIV-1, H9 cells): 5.57 µM; EC50 (HIV-1-GFP [4]; read-out: EC50 anti-HIV-1, Jurkat cells): 6.56 µM
